Reference: PMC9147975, “New Antibacterial Chloro-Containing Polyketides from the Alga-Derived Fungus Asteromyces cruciatus KMM 4696” (Journal of Fungi, 2022)
Entries after “also recorded” stand apart in the source; their conditions may differ.

Tests used:
[1] = test system: biofilm formation of Staphylococcus aureus; assay: Biofilm formation, crystal violet biofilm assay; type: cell-based; conditions: for inhibition at 100 µM: Staphylococcus aureus; for formation of biofilms (in words): 100 μM
Description: The inhibition of the reducing biofilm formation and growth was assessed using the crystal violet biofilm assay as described. Mueller Hinton broth was inoculated with 10^9 CFU/mL of S. aureus overnight cultures. A total of 90 µL of this cell suspension was then dispensed into 96-well microtiter plates containing 10 µL of different concentrations of compounds 1–6. After 24 h growth at 37 °C the plates were washed with PBS to remove unbound cells. Next, the wells were stained with 0.1% crystal violet solution for 10 min at 37 °C. At the completion of the incubation, plates were washed 3 times with PBS and dried. Then, the crystal violet dye from the biofilm was solubilized with 100 µL of ethanol. A total of 100 µL of this solution was then moved to a new microtiter plate for absorbance measurement at λ = 570 nm. The results were reported as percent inhibition normalized to the wild-type control.

[2] = test system: Staphylococcus aureus ATCC 21027; assay: Antimicrobial activity, bacterial growth (OD620); type: cell-based; conditions: for inhibition at 100 µM: read-out: inhibition of S. aureus growth; for change of antimicrobial activity on decrease of concentration: decrease of concentration from 100 μM (two-fold for compound 6)
Description: The antibacterial activity of compounds 1–6 was evaluated as described previously. The bacterial culture of Staphylococcus aureus ATCC 21027 (Collection of Marine Microorganisms PIBOC FEBRAS) was cultured in a Petri dish at 37 °C for 24 h on solid medium Mueller Hinton broth with agar—16.0 g/L. The assays were performed in 96-well microplates in appropriate Mueller Hinton broth. Each well contained 90 µL of bacterial suspension (10^9 CFU/mL). Then, 10 µL diluted at concentrations from 1.5 µM to 100.0 µM using two-fold dilution was added to compounds 1–6 (DMSO concentration < 1%). Culture plates were incubated overnight at 37 °C, and the OD620 was measured using a Multiskan Spectrum spectrophotometer (Thermo Labsystems Inc., Beverly, MA, USA). Gentamicin was used as a positive control in concentration 1 mg/mL; 1% DMSO solution in PBS as a negative.

[3] = target: T1, sortase A from Staphylococcus aureus (Staphylococcus aureus, UniProt Q2FV99); assay: Sortase activity inhibition assay (SensoLyte 520 Sortase A Activity Assay Kit); type: biochemical; conditions: 50 μM; for effect on sortase A enzymatic activity (in words) / decrease of sortase A activity: after 10 min of incubation with the substrate
T1 construct: purchased AnaSpec AS-72229
Description: The enzymatic activity of sortase A from Staphylococcus aureus was determined using SensoLyte 520 Sortase A Activity Assay Kit * Fluorimetric * (AnaSpec AS-72229, AnaSpec, San Jose, CA, USA) in accordance with the manufacturer’s instructions. […] DMSO at a concentration of 0.8% was used as a control. PCMB (4-(hydroxymercuri)benzoic acid) was used as sortase A enzyme activity inhibitor. Fluorescence was measured with a plate reader PHERAStar FS (BMG Labtech, Offenburg, Germany) for 60 min, with a time interval of 5 min. The data were processed with MARS Data Analysis v. 3.01R2 (BMG Labtech, Offenburg, Germany). The results were presented as relative fluorescent units (RFUs) and percentage of the control data, calculated using STATISTICA 10.0 software.

[4] = test system: human keratinocytes HaCaT co-cultivated with S. aureus; assay: Co-cultivation of HaCaT cells with S. aureus, LDH release; type: cell-based; conditions: 10 μM, 48 h co-cultivation
Description: Co-cultivation of HaCaT cells with S. aureus was carried out as described. HaCaT cells at a concentration of 1.5×10^4 cells per well were seeded in 96-well plates for 24 h. Then, culture medium in each well was changed with S. aureus suspension (10^2 CFU/mL) in full DMEM medium. Fresh DMEM medium without S. aureus suspension was added in other wells as needed. Compounds 1–6 at a concentration of 10 μM were added in wells after 1 h. HaCaT cells and S. aureus were cultured at 37 °C in a humidified atmosphere with 5% (v/v) CO2 for 48 h. After incubation, the plate was centrifuged at 250× g for 10 min and 50 µL of supernatant from each well was transferred into the corresponding wells of an optically clear 96-well plate. An equal volume of the reaction mixture (50 µL) from LDH Cytotoxicity Assay Kit (Abcam, Cambridge, UK) was added to each well and incubated for up to 30 min at room temperature. The absorbance of all samples was measured at λ = 450 nm using a Multiskan FC microplate photometer (Thermo Scientific, Waltham, MA, USA) and expressed in optical units (o.u.).

[5] = test system: Staphylococcus aureus ATCC 21027; set-up: method as in PMID 34677452; conditions: cited from earlier work
[6] = test system: biofilm formation of Staphylococcus aureus; set-up: method as in PMID 34677452; conditions: cited from earlier work
[7] = target: T1, sortase A from Staphylococcus aureus; conditions: cited from earlier work
[8] = test system: human keratinocytes HaCaT co-cultivated with S. aureus; set-up: method as in PMID 34677452; conditions: cited from earlier work
[9] = Staphylococcus aureus, ATCC21027, 100 μM

T1 sequence (Q2FV99 whole entry): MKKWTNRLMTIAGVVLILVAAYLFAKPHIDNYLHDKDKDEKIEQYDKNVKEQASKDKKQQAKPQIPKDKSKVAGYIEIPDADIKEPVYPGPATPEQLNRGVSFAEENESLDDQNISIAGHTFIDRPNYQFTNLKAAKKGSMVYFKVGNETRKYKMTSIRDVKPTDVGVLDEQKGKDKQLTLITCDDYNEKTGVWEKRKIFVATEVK

Compound: C=C(C)C#C[C@@H]1C[C@H](O)[C@H](Cl)[C@@H](O)[C@H]1O (relative stereo) [Compound 2, Acrucipentyn B]
- effect on biofilm formation, comparison in words [1]: did not show a significant effect
- inhibition at 100 µM [1]: 30%
- inhibition at 100 µM [2, 9]: ≤ 50%
- effect on sortase A enzymatic activity (in words) [3]: inactive; also recorded: did not have any effect
- effect on LDH release (in words) [4]: greatest effect; also recorded: significant activity

Compound: C=C(C)C#C[C@@H]1C[C@H](O)[C@H](O)[C@@H](Cl)[C@@H]1O (relative stereo) [Compound 3, Acrucipentyn C]
- concentration down to which a high level of inhibition of biofilm formation is kept [1]: 12.5 µM
- formation of biofilms (in words) [1]: almost absent
- inhibition at 100 µM [2, 9]: 50%
- change of antimicrobial activity on decrease of concentration [2]: two-fold decrease in activity
- time-dependent inhibitory effect on sortase A activity ([3]; 60 min data acquisition): detected throughout the entire period of data acquisition
- decrease of sortase A activity [3]: 30%

Compound: C=C(C)C#CC1=C[C@@H](O)[C@@H](Cl)[C@H](O)[C@@H]1O (relative stereo) [Compound 4, Acrucipentyn D]
- formation of biofilms (in words) [1]: almost absent
- change of effect on biofilm formation when diluted twice ([1]; diluted twice from 100 μM): halved
- inhibition at 100 µM [2, 9]: ≤ 50%
- effect on sortase A enzymatic activity (in words) [3]: less significant effects
- effect on LDH release (in words) [4]: greatest effect; also recorded: significant activity

Compound: C=C(C)C#CC1=C[C@@H](O)[C@H](O)[C@@H](Cl)[C@@H]1O (relative stereo) [Compound 5, Acrucipentyn E]
- effect on biofilm formation, comparison in words [1]: weaker inhibitory effect
- inhibition at 100 µM [1]: 30%
- inhibition at 100 µM [2, 9]: ≤ 50%
- decrease of sortase A activity [3]: 21%
- effect on LDH release (in words) [4]: greatest effect

Compound: C=C(C)C#CC1=C[C@@H](O)[C@@H]2O[C@@H]2[C@@H]1O (relative stereo) [Compound 6, Acrucipentyn F]
- concentration down to which a high level of inhibition of biofilm formation is kept [1]: 25 µM
- formation of biofilms (in words) [1]: almost absent
- antimicrobial effect against S. aureus, ranking in words [2]: most pronounced antimicrobial effects
- inhibition of S. aureus growth (in words) ([2]; 100 μM): almost completely inhibited
- change of antimicrobial activity on decrease of concentration [2]: halved
- effect on sortase A enzymatic activity (in words) [3]: less significant effects

Compound: C=C(C)C#C[C@@H]1C[C@@H](O)[C@@H](Cl)[C@H](O)[C@@H]1O [Compound 1, Acrucipentyn A]
- inhibition of biofilm formation ([1]; concentrations of 12.5–100 μM, respectively): 50–70%
- antimicrobial effect against S. aureus, ranking in words [2]: most pronounced antimicrobial effects
- inhibition at 12.5 µM ([2]; Staphylococcus aureus, ATCC21027, 12.5 μM, read-out: antimicrobial activity (inhibition of S. aureus growth)): ≤ 50%
- inhibition at 100 µM [2, 9]: 60%
- decrease of sortase A activity [3]: 18%
- effect on LDH release (in words) [4]: greatest effect

Compound: flavuside B
- S. aureus growth (in words) [5]: able to inhibit
- S. aureus biofilm formation (in words) [6]: able to inhibit
- sortase A enzymatic activity (in words) [7]: inhibitor of sortase A enzymatic activity
- protection of HaCaT keratinocytes in co-culture model (in words) [8]: protect HaCaT keratinocytes against S. aureus infection
